Test results: the supplement of paper PMC11061612

Legend:
Assay in all cases: combination Emax (second highest fraction inhibited in the dose matrix, 72 h); higher = more inhibition; extreme values may be limits of the assay
TK10 (Kidney Carcinoma) = tested on: TK10 (Kidney Carcinoma)
Method in brief: (§1)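 Cell lines grown in DMEM/F12 or RPMI with 10% FBS were plated in 1536-well plates and held 24 hours at 37°C, 5% CO2 before 72 hours of exposure to two-drug dose matrices, with DMSO typically at 0.2%. CellTiter-Glo 2.0 luminescence gave viability, which was converted to inhibition. Vehicle wells were set to 0 and blank wells to 1. Combination Emax is the second-highest inhibition in the matrix, and Bliss excess is the observed combination effect minus the expected EA + EB − EA·EB, where EA and EB are the single-agent effects.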

EW-24 (Ewing's Sarcoma) = tested on: EW-24 (Ewing's Sarcoma)
Method in brief: as §1

[1] = tested on: NCI-H358 (Lung Adenocarcinoma)
Method in brief: as §1

[2] = tested on: OSC-20 (Oral Cavity Carcinoma)
Method in brief: as §1

[3] = tested on: OE19 (Esophageal Adenocarcinoma)
Method in brief: as §1

[4] = tested on: SW13 (Other Solid Carcinomas)
Method in brief: as §1

[5] = tested on: C-4-I (Cervical Carcinoma)
Method in brief: as §1

NB69 (Neuroblastoma) = tested on: NB69 (Neuroblastoma)
Method in brief: as §1

[6] = tested on: KMOE-2 (Acute Myeloid Leukemia)
Method in brief: as §1

ACHN (Kidney Carcinoma) = tested on: ACHN (Kidney Carcinoma)
Method in brief: as §1

[7] = tested on: Caov-4 (Ovarian Carcinoma)
Method in brief: as §1

[8] = tested on: KYSE-450 (Esophageal Squamous Cell Carcinoma)
Method in brief: as §1

[9] = tested on: NUGC-3 (Gastric Carcinoma)
Method in brief: as §1

[10] = tested on: EFM-19 (Breast Carcinoma)
Method in brief: as §1

UACC-62 (Melanoma) = tested on: UACC-62 (Melanoma)
Method in brief: as §1

PWR-1E (Non-Cancerous) = tested on: PWR-1E (Non-Cancerous)
Method in brief: as §1

[11] = tested on: NCI-H727 (Other Solid Carcinomas)
Method in brief: as §1

[12] = tested on: MIA-PaCa-2 (Pancreatic Carcinoma)
Method in brief: as §1

[13] = tested on: VA-ES-BJ (Other Solid Carcinomas)
Method in brief: as §1

[14] = tested on: RF-48 (B-Cell Non-Hodgkin's Lymphoma)
Method in brief: as §1

Compound	combination Emax (TK10 (Kidney Carcinoma))	combination Emax (EW-24 (Ewing's Sarcoma))	combination Emax [1]	combination Emax [2]	combination Emax [3]	combination Emax [4]	combination Emax [5]	combination Emax (NB69 (Neuroblastoma))	combination Emax [6]	combination Emax (ACHN (Kidney Carcinoma))	combination Emax [7]	combination Emax [8]	combination Emax [9]	combination Emax [10]	combination Emax (UACC-62 (Melanoma))	combination Emax (PWR-1E (Non-Cancerous))	combination Emax [11]	combination Emax [12]	combination Emax [13]	combination Emax [14]
Cc1c2c(nn1C)CSCc1cc(n(C)n1)CSc1cc(c3ccccc3c1)OCCCc1c(C(=O)O)n(C)c3c-2c(Cl)ccc13 [AZD5991] + CC1(C)CCC(CN2CCN(c3ccc(C(=O)NS(=O)(=O)c4ccc(NCC5CCOCC5)c([N+](=O)[O-])c4)c(Oc4cnc5[nH]ccc5c4)c3)CC2)=C(c2ccc(Cl)cc2)C1 [Venetoclax] (first compound max 1 µM, 7x7, partner max 1 µM)	0.208	0.38	0.217	0.145	0.457	0.927	0.976	0.877	0.709	0.192	0.616	0.189	0.196	0.624	0.962	0.199	0.258	0.451	0.145	0.497
Cc1c2c(nn1C)CSCc1cc(n(C)n1)CSc1cc(c3ccccc3c1)OCCCc1c(C(=O)O)n(C)c3c-2c(Cl)ccc13 [AZD5991] + CCN(CCO)CCCOc1ccc2c(Nc3cc(CC(=O)Nc4cccc(F)c4)[nH]n3)ncnc2c1 [AZD2811] (first compound max 1 µM, 7x7, partner max 1 µM)	0.228	0.383	0.403	0.438	0.937	0.964	1	0.878	0.759	0.27	0.743	0.54	0.391	0.783	0.887	0.939	0.286	0.66	0.395	0.262
Cc1c2c(nn1C)CSCc1cc(n(C)n1)CSc1cc(c3ccccc3c1)OCCCc1c(C(=O)O)n(C)c3c-2c(Cl)ccc13 [AZD5991] + C[C@@H]1COCCN1C2=NC(=NC(=C2)C3(CC3)[S@](=N)(=O)C)C4=C5C=CNC5=NC=C4 [AZD6738] (first compound max 1 µM, 7x7, partner max 10 µM)	0.522	0.53	0.632	0.406	0.746	0.854	1	0.967	0.873	0.948	0.914	0.55	0.69	0.465	0.939	0.985	0.412	0.706	0.686	0.545
